We go through 2 compounds from PMC12648108, “Phenotypic pleiotropy of missense variants in human B cell confinement receptor P2RY8” (Cell Genomics, 2025).

The target of test [1] is T1, P2RY8-miniGα13 in complex with Gβ1γ2 (Homo sapiens, UniProt Q86VZ1).
T1 construct: Expi293F TetR; complexed with human Gβ1γ2 from Hi5 cells
Briefly: cryo-EM structure, […] Å map. The class given is binding. Conditions: orthosteric pocket; active state, Gβ1γ2 bound; pH 7.5, L-MNG/GDN/CHS, 30 μM GGG.

Test [2] deals with T2, P2RY8 (Homo sapiens, UniProt Q86VZ1, L220Y).
T2 construct: full length, 358 codons after start to 358; preprolactin signal + N-terminal OX56 tag (P2A-eGFP vector) for BRET; P2RY8-LgBiT fusion for beta-arrestin; MSCV-GFP vector in WEHI-231; expressed in HEK293T or WEHI-231
Briefly: TRUPATH BRET G13 activation assay. The class given is cell-based. Particulars: agonist (falling BRET ratio); HEK293T with Gα13-RLuc8, Gβ3, Gγ9-GFP2; HBSS, 20 mM HEPES.

For test [3], the target named is T3, P2RY8 (Homo sapiens, UniProt Q86VZ1).
T3 construct: full length, 358 codons after start to 358; preprolactin signal + N-terminal OX56 tag (P2A-eGFP vector) for BRET; P2RY8-LgBiT fusion for beta-arrestin; MSCV-GFP vector in WEHI-231; expressed in HEK293T or WEHI-231
In words: migration inhibition of P2RY8-transduced WEHI-231 cells. Format: cell-based. Particulars: agonist; CXCL12 50 ng/mL, 37 °C, 3 h.

`CC(C)=CCC/C(C)=C/CC/C(C)=C/CC/C(C)=C/CSC[C@H](NC(=O)CC[C@H](N)C(=O)O)C(=O)NCC(=O)O` [S-geranylgeranyl-L-glutathione]: the “cryo-EM structure, 2.7 Å map” value in test [1] was “density consistent with GGG located in the canonical class A GPCR orthosteric ligand-binding pocket”. The G protein activation entry at P2RY8 [2] is listed as “The strongly deleterious variant L220Y was unable to drive G protein activation”.

Regarding `CCCCC/C=C\C\C=C/C=C/C=C/[C@@H](SC[C@H](NC(=O)CC[C@H](N)C(=O)O)C(=O)NCC(=O)O)[C@@H](O)CCCC(=O)O` [leukotriene C4], the “fold less potency than GGG” value on P2RY8 [3] is given as ~ 100 fold.
